Measurements as given in US20240182481A1 (Tango Therapeutics, Inc., priority 2021, published 2024).
Read-outs that look alike come from different tables or passages of the source.

Tests used:
USP1-UAF1 = USP1-UAF1 (Homo sapiens, UniProt O94782); assay: Ubiquitin Rhodamine assay for USP1-UAF1 activity; assay type: biochemical
Method: Certain compounds of the disclosure were assessed for USP1-UAF1 activity in a Ubiquitin Rhodamine assay as described in Example 135.

[1] = system: HCC1954 (BRCA1 WT) cell line; assay: Viability assay in BRCA1 WT cell line HCC1954; assay type: cell-based; conditions: read-out: HCC 1954 IC50 rel IC50
Text: (§1) Table 1 also indicates IC50 values in a viability assay for a non-isogenic pair of BRCA1 mutant (column 5—MDA-MB-436) and BRCA1 WT (column 6—HCC1954) cell lines. These values indicate the effect of treatment with compound on cell survival.

[2] = system: MDA-MB-436 (BRCA1 mutant) cell line; assay: Viability assay in BRCA1 mutant cell line MDA-MB-436; assay type: cell-based; conditions: Homo sapiens, MDA-MB-436, viability, BRCA1 mutant MDA-MB-436; read-out: MDA-MB-436 rel IC50
Text: as §1

Sequence of USP1-UAF1 (O94782 whole entry): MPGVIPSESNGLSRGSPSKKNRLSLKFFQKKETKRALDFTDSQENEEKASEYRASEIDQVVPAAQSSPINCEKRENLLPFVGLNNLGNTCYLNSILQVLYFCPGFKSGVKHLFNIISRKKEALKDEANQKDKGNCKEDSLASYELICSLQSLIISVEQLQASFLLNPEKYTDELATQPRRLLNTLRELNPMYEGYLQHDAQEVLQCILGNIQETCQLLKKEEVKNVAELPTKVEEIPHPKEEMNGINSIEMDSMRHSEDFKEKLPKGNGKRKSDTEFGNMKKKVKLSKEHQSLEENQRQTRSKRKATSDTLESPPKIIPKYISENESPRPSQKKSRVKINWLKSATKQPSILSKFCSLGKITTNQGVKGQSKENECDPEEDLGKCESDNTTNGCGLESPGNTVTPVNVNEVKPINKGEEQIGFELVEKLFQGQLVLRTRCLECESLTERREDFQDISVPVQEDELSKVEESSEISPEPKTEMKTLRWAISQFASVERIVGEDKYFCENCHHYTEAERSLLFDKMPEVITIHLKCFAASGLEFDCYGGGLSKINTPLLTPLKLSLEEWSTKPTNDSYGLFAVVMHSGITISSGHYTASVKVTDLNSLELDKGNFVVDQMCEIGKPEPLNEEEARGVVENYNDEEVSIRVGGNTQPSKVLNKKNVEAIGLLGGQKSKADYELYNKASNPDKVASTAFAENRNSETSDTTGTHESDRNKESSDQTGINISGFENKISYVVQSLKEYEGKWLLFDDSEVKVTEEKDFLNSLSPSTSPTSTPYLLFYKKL
Sequence of USP1-UAF1 (Q8TAF3 whole entry partner): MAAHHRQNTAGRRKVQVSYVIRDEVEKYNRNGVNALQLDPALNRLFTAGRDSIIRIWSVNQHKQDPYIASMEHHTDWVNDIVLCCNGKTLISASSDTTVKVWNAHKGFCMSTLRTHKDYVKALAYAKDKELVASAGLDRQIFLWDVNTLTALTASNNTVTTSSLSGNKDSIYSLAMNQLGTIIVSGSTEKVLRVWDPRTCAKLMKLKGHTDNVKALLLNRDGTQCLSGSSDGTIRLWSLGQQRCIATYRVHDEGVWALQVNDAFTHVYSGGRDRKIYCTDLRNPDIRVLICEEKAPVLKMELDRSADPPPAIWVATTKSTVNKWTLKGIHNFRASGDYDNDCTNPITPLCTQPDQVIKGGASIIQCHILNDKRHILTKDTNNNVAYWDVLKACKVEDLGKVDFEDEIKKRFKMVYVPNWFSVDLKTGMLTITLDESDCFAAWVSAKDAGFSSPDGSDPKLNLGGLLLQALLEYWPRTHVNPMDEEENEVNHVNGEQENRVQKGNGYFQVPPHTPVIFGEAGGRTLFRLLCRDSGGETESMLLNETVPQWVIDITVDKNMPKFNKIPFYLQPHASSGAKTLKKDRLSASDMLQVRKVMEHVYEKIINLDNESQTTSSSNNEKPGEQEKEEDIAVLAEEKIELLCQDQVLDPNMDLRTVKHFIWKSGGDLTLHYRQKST

| IC50 (USP1-UAF1) [µM] | IC50 ([1]; Homo sapiens) [µM] | IC50 [2] [µM] | IC50 [1] [µM] | SMILES |
| --- | --- | --- | --- | --- |
| 0.1 to 10 | 0.25 to 10 | 0.1 to 0.25 | – | Cn1cc(C(F)(F)F)nc1-c1ccc(C(C)(O)c2c[nH]c3cnc(-c4cccnc4OCC(F)(F)F)nc23)cc1 (single isomer, unassigned) [Compound 22] |
| 0.1 to 10 | – | – | – | CO[C@@H](c1ccc(-c2nc(C(F)(F)F)cn2C)cc1)c1c[nH]c2cnc(-c3c(OC(F)F)ncnc3C3CC3)nc12 (single isomer, unassigned) [Compound 127] |
| < 0.03 | – | – | – | CO[C@H](c1ccc(-c2nc(C(F)(F)F)cn2C)cc1)c1c[nH]c2cnc(-c3c(OC(F)F)ncnc3C3CC3)nc12 (single isomer, unassigned) [Compound 149] |
| – | – | – | 0.25 to 10 | COc1ncnc(C2CC2)c1-c1ncc2[nH]cc(C(C)c3ccc(-c4nc(C(F)(F)F)cn4C)cc3)c2n1 (single isomer, unassigned) [Compound 192] |
| 0.1 to 10 | 0.25 to 10 | 0.25 to 10 | – | COc1ncnc(C2CC2)c1-c1ncc2[nH]cc([C@H](c3ccc(-c4nc(C(F)(F)F)cn4C)cc3)C(C)C)c2n1 (single isomer, unassigned) [Compound 208] |
| ≥ 10 | ≥ 10 | ≥ 10 | – | CN(C)Cc1ccccc1-c1ncc2[nH]cc(C(O)c3ccc(-c4nc(C(F)(F)F)cn4C)cc3)c2n1 (centres unmarked) [Compound 3] |
| 0.1 to 10 | ≥ 10 | 0.25 to 10 | – | CC(C)c1ccccc1-c1ncc2[nH]cc(CN3CCC(c4nc(C(F)(F)F)cn4C)CC3)c2n1 [Compound 6, 2-(2-isopropylphenyl)-7-[[4-[1-methyl-4-(trifluoromethyl)imidazol-2-yl]-1-piperidyl]methyl]-5H-pyrrolo[3,2-d]pyrimidine] |
| ≥ 10 | ≥ 10 | ≥ 10 | – | COc1ncnc(C2CC2)c1-c1ncc2[nH]cc(C(O)c3ccc(-c4nc(C(F)(F)F)cn4C4CN(C)C4)cc3)c2n1 (centres unmarked) [Compound 7, (2-(4-cyclopropyl-6-methoxypyrimidin-5-yl)-5H-pyrrolo[3,2-d]pyrimidin-7-yl)(4-(1-(1-methylazetidin-3-yl)-4-(trifluoromethyl)-1H-imidazol-2-yl)phenyl)methanol] |
| ≥ 10 | ≥ 10 | ≥ 10 | – | CN(C)Cc1ccccc1-c1ncc2[nH]cc(Cc3ccc(-c4nc(C(F)(F)F)cn4C)cc3)c2n1 [Compound 9] |
| 0.1 to 10 | ≥ 10 | 0.25 to 10 | – | CN(c1ccc(-c2nc(C(F)(F)F)cn2C)cc1)c1c[nH]c2cnc(-c3ccccc3C3CC3)nc12 [Compound 13, 2-(2-cyclopropylphenyl)-N-methyl-N-[4-[1-methyl-4-(trifluoromethyl)imidazol-2-yl]phenyl]-5H-pyrrolo[3,2-d]pyrimidin-7-amine] |
| – | ≥ 10 | < 0.1 | – | COc1ncnc(C2CC2)c1-c1ncc2[nH]nc(Cc3ccc(-c4nc(C(F)(F)F)cn4C(C)C)cc3)c2n1 [Compound 16, 5-(4-cyclopropyl-6-methoxy-pyrimidin-5-yl)-3-[[4-[1-isopropyl-4-(trifluoromethyl)imidazol-2-yl]phenyl]methyl]-1H-pyrazolo[4,3-d]pyrimidine] |
| 0.1 to 10 | – | – | – | COc1ncnc(C2CC2)c1-c1ncc2[nH]cc(C(O)c3ccc(-c4nc(C(F)(F)F)cn4C4CC4)cc3)c2n1 (centres unmarked) [Compound 19, [2-(4-cyclopropyl-6-methoxy-pyrimidin-5-yl)-5H-pyrrolo[3,2-d]pyrimidin-7-yl]-[4-[1-cyclopropyl-4-(trifluoromethyl)imidazol-2-yl]phenyl]methanol] |
| 0.1 to 10 | ≥ 10 | ≥ 10 | – | Cn1cc(C(F)(F)F)nc1-c1ccc(C(O)c2c[nH]c3cnc(-c4cccnc4C4CC4)cc23)cc1 (centres unmarked) [Compound 30, [5-(2-cyclopropylpyridin-3-yl)-1H-pyrrolo[2,3-c]pyridin-3-yl]([4-[1-methyl-4-(trifluoromethyl)imidazol-2-yl]phenyl])methanol] |
| 0.1 to 10 | 0.25 to 10 | 0.25 to 10 | – | Cn1cc(C(F)(F)F)nc1-c1ccc(Cc2c[nH]c3cnc(-c4cccnc4N4CCC45CCOC5)nc23)cc1 (centres unmarked) [Compound 32] |
| 0.1 to 10 | 0.25 to 10 | 0.25 to 10 | – | CC(C)c1ccccc1-c1ncc2[nH]cc(CN3CCN(c4nc(C(F)(F)F)cn4C)CC3)c2n1 [Compound 35, 2-(2-isopropylphenyl)-7-[[4-[1-methyl-4-(trifluoromethyl)imidazol-2-yl]piperazin-1-yl]methyl]-5H-pyrrolo[3,2-d]pyrimidine] |
| 0.1 to 10 | – | – | – | Cn1cc(C(F)(F)F)nc1-c1ccc([S+]([O-])c2c[nH]c3cnc(-c4ccccc4C(F)(F)F)nc23)cc1 (centres unmarked) [Compound 36, 7-[4-[1-methyl-4-(trifluoromethyl)imidazol-2-yl]phenyl]sulfinyl-2-[2-(trifluoromethyl)phenyl]-5H-pyrrolo[3,2-d]pyrimidine] |
| ≥ 10 | – | – | – | COc1ncnc(C2CC2)c1-c1ncc2[nH]cc(C(O)c3ccc(-c4nc(C#N)cn4C)cc3)c2n1 (centres unmarked) [Compound 37, 2-[4-[[2-(4-cyclopropyl-6-methoxy-pyrimidin-5-yl)-5H-pyrrolo[3,2-d]pyrimidin-7-yl]-hydroxy-methyl]phenyl]-1-methyl-imidazole-4-carbonitrile] |

| IC50 (USP1-UAF1) [µM] | IC50 ([1]; Homo sapiens) [µM] | IC50 [2] [µM] | IC50 [1] [µM] | SMILES |
| --- | --- | --- | --- | --- |
| ≥ 10 | ≥ 10 | ≥ 10 | – | CN1CC(n2cc(C(F)(F)F)nc2-c2ccc(C(O)c3c[nH]c4cnc(-c5cccnc5OC(F)F)nc34)cc2)C1 (centres unmarked) [Compound 38, [2-[2-(difluoromethoxy)-3-pyridyl]-5H-pyrrolo[3,2-d]pyrimidin-7-yl]-[4-[1-(1-methylazetidin-3-yl)-4-(trifluoromethyl)imidazol-2-yl]phenyl]methanol] |
| < 0.03 | ≥ 10 | < 0.1 | – | COc1ncnc(C2CC2)c1-c1ncc2c(n1)c(Cc1ccc(-c3nc(C(F)(F)F)cn3C)cc1)cn2C [Compound 39, 2-(4-cyclopropyl-6-methoxy-pyrimidin-5-yl)-5-methyl-7-[[4-[1-methyl-4-(trifluoromethyl)imidazol-2-yl]phenyl]methyl]pyrrolo[3,2-d]pyrimidine] |
| 0.1 to 10 | ≥ 10 | 0.25 to 10 | – | Cn1cc(C(F)(F)F)nc1-c1ccc(C(O)c2c[nH]c3cnc(-c4cccnc4C4CC4)nc23)cc1 (centres unmarked) [Compound 40] |
| 0.1 to 10 | ≥ 10 | 0.25 to 10 | – | CN(Cc1ccccc1-c1ncc2[nH]cc(C(O)c3ccc(-c4nc(C(F)(F)F)cn4C)cc3)c2n1)CC(F)(F)F (centres unmarked) [Compound 42] |
| 0.1 to 10 | ≥ 10 | ≥ 10 | – | Cn1cc(C(F)(F)F)nc1-c1ccc(Nc2c[nH]c3cnc(-c4cccnc4C4CC4)nc23)cc1 [Compound 43, 2-(2-cyclopropyl-3-pyridyl)-N-[4-[1-methyl-4-(trifluoromethyl)imidazol-2-yl]phenyl]-5H-pyrrolo[3,2-d]pyrimidin-7-amine] |
| 0.1 to 10 | 0.25 to 10 | 0.25 to 10 | – | Cn1cc(C(F)(F)F)nc1-c1ccc(Cc2c[nH]c3cnc(-c4cccnc4NC4CC4)nc23)cc1 [Compound 44] |
| 0.1 to 10 | – | – | – | Cn1cc(C(F)(F)F)nc1-c1ccc(S(=O)(=O)c2c[nH]c3cnc(-c4ccccc4C(F)(F)F)nc23)cc1 [Compound 46, 7-[4-[1-methyl-4-(trifluoromethyl)imidazol-2-yl]phenyl]sulfonyl-2-[2-(trifluoromethyl)phenyl]-5H-pyrrolo[3,2-d]pyrimidine] |
| 0.1 to 10 | ≥ 10 | 0.25 to 10 | – | COc1ncnc(C2CC2)c1-c1ncc2[nH]cc(C(O)c3ccc(-c4nc(C(F)(F)F)cn4C)cc3)c2n1 (centres unmarked) [Compound 49, [2-(4-cyclopropyl-6-methoxy-pyrimidin-5-yl)-5H-pyrrolo[3,2-d]pyrimidin-7-yl]-[4-[1-methyl-4-(trifluoromethyl)imidazol-2-yl]phenyl]methanol] |
| 0.1 to 10 | 0.25 to 10 | 0.25 to 10 | – | CC(C)Nc1ncccc1-c1ncc2[nH]cc(Cc3ccc(-c4nc(C(F)(F)F)cn4C)cc3)c2n1 [Compound 50, N-isopropyl-3-[7-[[4-[1-methyl-4-(trifluoromethyl)imidazol-2-yl]phenyl]methyl]-5H-pyrrolo[3,2-d]pyrimidin-2-yl]pyridin-2-amine] |
| 0.1 to 10 | – | – | – | Cn1cc(C(F)(F)F)nc1-c1ccc(Cc2c[nH]c3cnc(-c4cccnc4N4CC(F)C4)nc23)cc1 [Compound 68] |
| 0.1 to 10 | – | – | – | CCn1c(C(F)(F)F)cnc1-c1ccc(Cc2c[nH]c3cnc(-c4c(OC)ncnc4C4CC4)nc23)cc1 [Compound 70] |
| < 0.03 | – | – | – | COc1ncnc(C(C)C)c1-c1ncc2[nH]nc(Cc3ccc(-c4nc(C(F)(F)F)cn4C)cc3)c2n1 [Compound 112] |
| < 0.03 | – | – | – | Cn1cc(C(F)(F)F)nc1-c1ccc(Cc2c[nH]c3cnc(-c4ccccc4C(C)(C)O)nc23)cc1 [Compound 157, 2-(2-(7-(4-(1-methyl-4-(trifluoromethyl)-1H-imidazol-2-yl)benzyl)-5H-pyrrolo[3,2-d]pyrimidin-2-yl)phenyl)propan-2-ol] |
| < 0.03 | – | – | – | COc1ncnc(C(C)(C)C)c1-c1ncc2[nH]nc(Cc3ccc(-c4nc(C(F)(F)F)cn4C)cc3)c2n1 [Compound 158] |
| < 0.03 | – | – | – | Cn1cc(C(F)(F)F)nc1-c1ccc(Cc2n[nH]c3cnc(-c4c(OCF)ncnc4C4CC4)nc23)cc1 [Compound 169] |
| < 0.03 | – | – | – | COc1ncnc(C2CC2)c1-c1ncc2c(n1)c(Cc1ccc(-c3nc(C(F)(F)F)cn3C)cc1)cn2C1CC1 [Compound 170, 5-cyclopropyl-2-(4-cyclopropyl-6-methoxy-pyrimidin-5-yl)-7-[[4-[1-methyl-4-(trifluoromethyl)imidazol-2-yl]phenyl]methyl]pyrrolo[3,2-d]pyrimidine] |
| 0.1 to 10 | – | – | – | COc1ncnc(C2CC2)c1-c1nc(CN)c2[nH]cc(Cc3ccc(-c4nc(C(F)(F)F)cn4C)cc3)c2n1 [Compound 201] |
